Converted amounts (≈) assume the structure as drawn. “And” between values parts separate entries of the source, which are not always exact repeats. Equal values may be shown once.
Key:
[1] = 25° C.; cited from earlier work
[2] = Saturation solubility of metolazone in TBA:water ratios; assay type: physicochemical; conditions: for solubility: aqueous with cosolvent or surfactant or cyclodextrin, thermodynamic from solid
Method: Saturation solubility study of metolazone was conducted in different water to tertiary butyl alcohol ratios ranging from 20-40% of TBA and 80-60% water. The study was conducted in triplicate.

[3] = Tertiary butyl alcohol-water solubility trials (visual); assay type: physicochemical
Method: Before initiating solvent based Lyophilization trials, a detail assessment of metolazone solubility in Water+TBA (Tertiary butyl alcohol) was carried out to identify optimum ratio of TBA:Water.

[4] = Diluent selection study: solubility of metolazone in diluent mixtures; assay type: physicochemical
Method: The diluent selection study was conducted to select the best diluent combination for metolazone. The following components were evaluated in combination with phosphate buffer to check the solubility of metolazone and to observe the solution clarity.
Procedure for Example no ITT-1 to 111-5: An excess amount of drug substance PSD (particle size distribution) 10 micron (60 mg) was added to the 20 mL diluent mixtures specified in Ex. III-1 to II-5 so that the theoretical concentration was 3 mg/mL. After drug addition, these samples were sonicated up to 4 hr using a sonicator at room temperature. Solution clarity and quantitative solubility were observed.

## Cc1ccccc1N1C(=O)c2cc(S(N)(=O)=O)c(Cl)cc2NC1C (centres unmarked) [Metolazone, 7-chloro-1,2,3,4-tetrahydro-2-methyl-3-(2-methylphenyl)-4-oxo-6-quinazoline sulfonamide]
[1]
  solubility in ethanol: 9000 µg/mL (≈ 24.6 mM)
[2]; 028A: 20% Tertiary butyl alcohol and 80% water mixture [20:80]
  Solubility of each trial: 289 µg/mL and 281 µg/mL
[2]; 028B: 30% Tertiary butyl alcohol and 70% water mixture [30:70]
  Solubility of each trial: 948 µg/mL and 1044 µg/mL
[2]; 028C: 40% Tertiary butyl alcohol and 60% water mixture [40:60]
  Solubility of each trial: 2122 µg/mL and 2025 µg/mL
[2]; FIG. 4
  slope of metolazone solubility versus TBA fraction in solvent: 0.0913
[2]; tertiary butyl alcohol/water mixture, 028A: 20% Tertiary butyl alcohol and 80% water mixture [20:80], read-out: Average solubility
  solubility: 279 µg/mL
[2]; tertiary butyl alcohol/water mixture, 028A: 20% Tertiary butyl alcohol and 80% water mixture [20:80], read-out: Solubility of each trial
  solubility: 267 µg/mL
[2]; tertiary butyl alcohol/water mixture, 028B: 30% Tertiary butyl alcohol and 70% water mixture [30:70], read-out: Average solubility
  solubility: 1010 µg/mL
[2]; tertiary butyl alcohol/water mixture, 028B: 30% Tertiary butyl alcohol and 70% water mixture [30:70], read-out: Solubility of each trial
  solubility: 1050 µg/mL
[2]; tertiary butyl alcohol/water mixture, 028C: 40% Tertiary butyl alcohol and 60% water mixture [40:60], read-out: Average solubility
  solubility: 2110 µg/mL
[2]; tertiary butyl alcohol/water mixture, 028C: 40% Tertiary butyl alcohol and 60% water mixture [40:60], read-out: Solubility of each trial
  solubility: 2170 µg/mL
[2]; tertiary butyl alcohol/water mixtures, TBA:water in the ratio of 30:70 to 40:60, read-out: solubility in solvent (TBA:water)
  solubility: > 1000 µg/mL
[3]; Trial 1: WFI, 5.04 mg metolazone, Q.S. to 10 mL
  Observations: Insoluble
[3]; Trial 2: 20% TBA, 10.08 mg metolazone, Q.S. to 20 mL
  Observations: opalescent
[3]; Trial 3: 30% TBA, 15.12 mg metolazone, Q.S. to 20 mL
  Observations: clear
[3]; Trial 4: 40% TBA, 30.24 mg metolazone, Q.S. to 20 mL
  Observations: clear
[3]; Trial 5: 50% TBA, 30.24 mg metolazone, Q.S. to 20 mL
  Observations: clear
[3]; Trial 6: 60% TBA, 30.24 mg metolazone, Q.S. to 20 mL
  Observations: clear
[3]; Trial 7: 30% TBA, 20.16 mg metolazone, Q.S. to 20 mL
  Observations: clear
[4]; 40% PEG in buffer, aqueous with cosolvent or surfactant or cyclodextrin, thermodynamic from solid, 40% PEG in all tested buffers, API with particle size D90<10 microns, read-out: solubility
  solubility: > 1200 µg/mL
[4]; 40% PEG-400 and 0.4% Kolliphor HS-15 in Tris buffer, pH 7.5, aqueous with cosolvent or surfactant or cyclodextrin, thermodynamic from solid, Ex: III-4, 031D: 40% PEG-400 + Kolliphor HS-15 0.4% + Tris buffer pH 7.5, read-out: Solubility
  solubility: 2310 µg/mL
[4]; 40% PEG-400 and 0.4% Kolliphor HS-15 in phosphate buffer, pH 7.5, aqueous with cosolvent or surfactant or cyclodextrin, thermodynamic from solid, Ex: III-3, 031C: 40% PEG-400 + Kolliphor HS-15 0.4% + Phosphate buffer pH 7.5, read-out: Solubility
  solubility: 2160 µg/mL
[4]; 40% PEG-400 in Tris buffer, pH 7.5, aqueous with cosolvent or surfactant or cyclodextrin, thermodynamic from solid, Ex: III-2, 031B: 40% PEG-400 + Tris buffer pH 7.5, read-out: Solubility
  solubility: 1280 µg/mL
[4]; 40% PEG-400 in phosphate buffer, pH 7.5, aqueous with cosolvent or surfactant or cyclodextrin, thermodynamic from solid, Ex: III-1, 031A: 40% PEG-400 + Phosphate buffer pH 7.5, API PSD 10 micron, sonicated up to 4 hr, room temperature, read-out: Solubility
  solubility: 1800 µg/mL
[4]; Ex: III-1, 031A: 40% PEG-400 + Phosphate buffer pH 7.5, API PSD 10 micron, sonicated up to 4 hr, room temperature
  solubility: 1862 µg/mL
[4]; tertiary butyl alcohol/water for injection mixture, aqueous with cosolvent or surfactant or cyclodextrin, thermodynamic from solid, Ex: III-5, 031E: 50% Tertiary butyl alcohol and 50% Water for injection, read-out: Solubility
  solubility: 3120 µg/mL

Source: US20250032417A1, “LYOPHILIZED METOLAZONE FORMULATION FOR PARENTERAL ADMINISTRATION” (Hyloris Developments SA, priority 2023, published 2025)
